Each structure is given as a SMILES string. Where two headings read alike, the source gives them in different places.

For one data set, the target named is T1, 17-Beta HSD II Enzyme (Homo sapiens, UniProt P37059).
T1 construct: made in house; host or cells: insect cells (baculovirus)
T1 sequence (P37059 1-387): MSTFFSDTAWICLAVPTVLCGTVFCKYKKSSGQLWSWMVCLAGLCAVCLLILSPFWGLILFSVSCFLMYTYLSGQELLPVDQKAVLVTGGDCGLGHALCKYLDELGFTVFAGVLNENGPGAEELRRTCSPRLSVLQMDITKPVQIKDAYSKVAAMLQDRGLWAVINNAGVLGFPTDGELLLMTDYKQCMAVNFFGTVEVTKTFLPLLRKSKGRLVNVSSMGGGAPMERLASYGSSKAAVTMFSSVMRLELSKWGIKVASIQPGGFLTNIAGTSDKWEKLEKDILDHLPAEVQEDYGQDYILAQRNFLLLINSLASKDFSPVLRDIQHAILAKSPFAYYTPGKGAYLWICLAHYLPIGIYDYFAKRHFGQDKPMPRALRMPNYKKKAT
The experiment in a line: Primary assay: inhibition of 17-Beta HSD II enzyme (estradiol/NAD, PMS:MTS colorimetric readout at 490 nm). The note with it: Table 7, baculovirus-expressed recombinant HSD II, estradiol substrate. Type of data set: biochemical. Here is the method:
HSD II protein purification: The method for purification of baculovirus-expressed HSD II was standardized as follows. The insect cell pellet containing recombinant HSD II was lysed in 2.5 volumes of lysis buffer (40 mM Tris, pH 7.5, 1 mM EDTA, 2 mM DTT, 10 uM NAD) containing 500 uM AEBSF, 10 ug/ml aprotinin, 1 uM pepstatin A, and 100 uM leupeptin. The pellet was nutated for 30 min in this buffer. Subsequently, the pellet was homogenized with 15 strokes using a glass and teflon potter. The volume was doubled with a 2× sucrose/NaCl solution (500 mM sucrose, 300 mM NaCl in lysis buffer). After centrifugation at 10,000×g for 30 min, the supernatant was decanted and stored at −20° C. The pellet was resuspended in 2.5 volumes of lysis buffer containing 250 mM sucrose and 150 mM NaCl. Homogenization was repeated (15 strokes) and the suspension was centrifuged again and the decanted supernatant was stored at −20° C. The pellet was resuspended with 2 times the original pellet volume in lysis buffer containing 150 mM NaCl and 1% Triton X-100. The suspension was nutated for 20 min and then homogenized with 5 strokes. Subsequently, the suspension was centrifuged at 30,000×g for 1 h and supernatant was decanted and poured into a chromatographic column. Sephadex G-25 (fine) was added in small amounts, allowing approximately 15 min after each addition for complete swelling. Sephadex addition was continued until all liquid was absorbed. The protein was eluted with 1 void volume of lysis buffer and eluate monitored at 280 nm optical density. The chromatographic procedure was repeated and an equal volume of glycerol was added to the final eluate.
Primary assay: After titration, the HSD II prep, generated with the standard protocol, was diluted to the appropriate concentration (generally 1/15 dilution). 55 μl of assay buffer (50 mM Hepes, pH 8.0) was added to all wells of a 96 well plate. 5 μl of 5% DMSO were added to wells A1-C1, A2-C2, F1-H1, and F2-H2. A 10 μl aliquot of a 10 mM solution in DMSO of each compound was diluted in 190 μl of assay buffer. The plate with these compound dilutions was then mixed for 15 min on a shaker and a 5 μl aliquot from each well was added to the […]. This was followed by 10 μl of HSD II enzyme ( 1/15 dilution)/estradiol mix in assay buffer containing 1% Triton X-100. The estradiol […] from a 20 mM estradiol DMSO stock solution, which was diluted 1/20 (50 μl/ml) in 50 mM Hepes buffer containing 1% Triton X-100. All wells, except F1-H1 and F2-H2, also received 10 μl of 25 mg/ml NAD (SIGMA) in 100 mM Hepes, pH 9. The blank wells F1-H1 and F2-H2 received 10 μl of NAD buffer. 20 μl of PMS:MTS solution (100 μl PMS into 1800 μl MTS, Promega) was added to all wells. The plate was covered with aluminum foil and incubated at room temperature for 1.5 h. The plate was analyzed at 490 nm on a Hewlett Pachard 8453 spectrophotometer and results were calculated.

Where [1] appears, read: read-out: IC50 values ≧2 μM and <10 μM.

Regarding `CN1C(=O)C[C@H](c2ccccc2F)[C@@H]1[C@H](O)c1ccc(-c2ccccc2)s1` (racemic) [Example 83], the melting point was 219 to 220 °C (dec.). Moreover, the IC50 at 17-Beta HSD II Enzyme is less than 500 nM.
In the same order, the values of `CN1C(=O)CC(c2ccccc2F)C1C(O)c1ccc(-c2ccc(F)cc2)s1` (stereo not drawn) [Example 84] are 178 °C and less than 500 nM.
In turn, `CSc1ccc(-c2ccc([C@@H](O)[C@H]3[C@@H](c4ccccc4)CC(=O)N3C)s2)cc1` (racemic) [Example 69] returned a melting point of 187 °C. For the same compound, the IC50 at 17-Beta HSD II Enzyme (setting [1]) lay in the range of 2000 to 10000 nM.
In the same order, the values of `CN1C(=O)C[C@H](c2ccccc2)[C@@H]1[C@H](O)C#CCN1CCS(=O)(=O)CC1` (racemic) [Example 130] are 217 to 218 °C and 2000 to 10000 nM.
Compound `CN1C(=O)C[C@H](c2ccccc2)[C@@H]1[C@H](O)c1ccc(-c2ccc[n+]([O-])c2)s1` [Example 26, (4R,5R)-5-{(S)-hydroxy[5-(1-oxido-3-pyridinyl)-2-thienyl]methyl}-1-methyl-4-phenyl 2-pyrrolidinone] had a melting point of 138 to 140 °C. For the same compound, the IC50 at 17-Beta HSD II Enzyme was less than 500 nM.
Consider `CN1C(=O)C[C@H](c2ccccc2)[C@@H]1[C@H](O)c1csc2ccccc12` (racemic) [Example 54], for which the melting point is more than 210 °C. Moreover, on 17-Beta HSD II Enzyme (setting [1]), the IC50 lay within 2000 to 10000 nM.
On to `CN1C(=O)C[C@H](c2ccccc2F)[C@@H]1[C@H](O)c1cccs1` [Example 150], for which the melting point was 212 °C. The IC50 at 17-Beta HSD II Enzyme is less than 500 nM.
As to `CN1C(=O)CC(c2ccccc2)C1C(O)C#Cc1ccccc1F` (stereo not drawn) [Example 127], at 17-Beta HSD II Enzyme, the IC50 was less than 500 nM.
Turning to `CN1C(=O)C[C@H](c2ccccc2)[C@@H]1[C@H](O)c1ccc(-c2cccc(NC(=O)Nc3ccc(F)cc3)c2)s1` (relative stereo) [Example 25, (±)-(4R*,5R*)-5-{(1S*)[5-(3-{[(4-fluorophenyl)amino]carbonylamino}phenyl)(2-thienyl)]hydroxymethyl}-1-methyl-4-phenylpyrrolidin-2-one], on 17-Beta HSD II Enzyme (setting [1]), the IC50 is 2000 to 10000 nM.
As for `CN1C(=O)CC(c2ccccc2)C1C(O)c1ccc(-c2ccc(Cl)cc2)s1` (stereo not drawn) [Example 51], the IC50 on 17-Beta HSD II Enzyme was less than 500 nM.
For `CN1C(=O)CC(c2ccccc2)C1C(O)c1ccc(Sc2ccccc2)s1` (stereo not drawn) [Example 66], the melting point was 172 °C. The IC50 at 17-Beta HSD II Enzyme is less than 500 nM.
In the case of `CN1C(=O)C[C@H](c2ccccc2F)[C@@H]1[C@H](O)c1ccc(-c2cccnc2)s1` [Example 151], the melting point was 195 to 197 °C. Also, the IC50 on 17-Beta HSD II Enzyme is less than 500 nM.
Take `CN1C(=O)C[C@H](c2ccccc2)[C@@H]1[C@H](OCc1ccccc1)c1cccs1` [Example 140]: the melting point fell in the range of 129 to 130 °C. Besides, the IC50 on 17-Beta HSD II Enzyme (setting [1]) is 2000 to 10000 nM.
Consider `CN1C(=O)C[C@H](c2ccccc2)[C@@H]1[C@H](O)C#Cc1ccccc1Cl` (racemic) [Example 126], for which the melting point was 139 to 140 °C. Moreover, on 17-Beta HSD II Enzyme, the IC50 was less than 500 nM.
As to `CN1C(=O)C[C@H](c2ccccc2)[C@@H]1[C@H](O)c1cccc2ccccc12` (racemic) [Example 94], the melting point is 255 to 256 °C. Moreover, the IC50 on 17-Beta HSD II Enzyme (setting [1]) was in the range of 2000 to 10000 nM.
Turning to `CN1C(=O)C[C@H](c2ccccc2)[C@@H]1[C@H](O)c1ccc(-c2ccc(F)cc2)s1` [Example 146], on 17-Beta HSD II Enzyme, the IC50 was less than 500 nM.
Still for that read-out and setting: the value for `CN1C(=O)C[C@H](c2ccccc2)[C@@H]1[C@H](O)C#Cc1ccccc1` (relative stereo) [Example 8, (±)-5-((1R*)-1-hydroxy-3-phenylprop-2-ynyl)(4R*,5R*)-1-methyl-4-phenylpyrrolidin-2-one] was less than 500 nM.
Take `Cc1ccc(C)n1-c1cccc(C#C[C@@H](O)[C@H]2[C@@H](c3ccccc3)CC(=O)N2C)c1` (racemic) [Example 131]: the melting point is 175 to 176 °C. For the same compound, the IC50 on 17-Beta HSD II Enzyme was less than 500 nM.
As to `CN1C(=S)C[C@H](c2ccccc2)[C@@H]1[C@H](O)c1cccs1` (relative stereo) [Example 1, (±)-(4R*,5R*)-5-((1S*)-hydroxy-2-thienylmethyl)-1-methyl-4-phenylpyrrolidin-2-thione], the IC50 at 17-Beta HSD II Enzyme (setting [1]) is 2000 to 10000 nM.
Same read-out and setting: the value for `CN1C(=O)C[C@H](c2ccc(CO)cc2)[C@@H]1[C@H](O)c1ccc(-c2ccccc2)s1` (relative stereo) [Example 21, (±)-(4R*,5R*)-5-[(1S*)hydroxy(5-phenyl(2-thienyl))methyl]-4-[4-(hydroxymethyl)phenyl]-1-methylpyrrolidin-2-one] was 2000 to 10000 nM.
`CN1C(=O)C[C@H](c2ccccc2)[C@@H]1[C@H](O)c1cccc(-c2cccc([N+](=O)[O-])c2)c1` (racemic) [Example 106] showed a melting point of 183 °C. Besides, the IC50 at 17-Beta HSD II Enzyme (setting [1]) lay in the range of 2000 to 10000 nM.
For `CN1C(=O)CC(c2ccccc2)C1C(O)c1ccc(-c2cccc([N+](=O)[O-])c2)o1` (stereo not drawn) [Example 123], the melting point amounted to 100 °C. Besides, the IC50 on 17-Beta HSD II Enzyme (setting [1]) was 2000 to 10000 nM.
For the compound `CN1C(=O)C[C@H](c2ccccc2)[C@@H]1[C@H](O)c1ccc(-c2cccnc2)s1` (racemic) [Example 79], the IC50 at 17-Beta HSD II Enzyme was less than 500 nM.
On to `CSC(c1cc2ccccc2[nH]1)[C@H]1[C@@H](c2ccccc2)CC(=O)N1C` (relative stereo) [Example 10], for which, on 17-Beta HSD II Enzyme, the IC50 is less than 500 nM.
With `CN1C(=O)C[C@H](c2ccccc2)[C@@H]1[C@@H](O)c1ccc(-c2ccccc2)s1` [Example 11, (4R,5R)-5-[(1R)-hydroxy(5-phenyl(2-thienyl))methyl]-1-methyl-4-phenylpyrrolidin-2-one], at 17-Beta HSD II Enzyme, the IC50 is less than 500 nM.
Still for that read-out and setting: the same measure for `CN1C(=O)CC(c2ccccc2)C1C(O)c1ccc(-c2c(F)cccc2F)s1` (stereo not drawn) [Example 30]: less than 500 nM.
With `CN(C)c1ccc([C@H]2CC(=O)N(C)[C@H]2[C@H](O)c2ccc(-c3ccccc3)s2)cc1` (relative stereo) [Example 19, (±)-(4R*,5R*)-5-[(1S*)-hydroxy(5-phenyl(2-thienyl))methyl]-1-methyl-4-[4-(dimethylamino)phenyl]pyrrolidin-2-one], the IC50 at 17-Beta HSD II Enzyme (setting [1]) lay within 2000 to 10000 nM.
`CN1C(=O)C[C@H](c2ccccc2)[C@@H]1COc1cccc(Cl)c1` (relative stereo) [Example 2, (±)-(4R*,5R*)-5-[(3-chlorophenoxy)methyl]-1-methyl-4-phenylpyrrolidin-2-one]: the IC50 on 17-Beta HSD II Enzyme (setting [1]) lay within 2000 to 10000 nM.
In the case of `CN1C(=O)C[C@H](c2ccc(O)cc2)[C@@H]1[C@H](O)c1ccc(-c2ccccc2)s1` (relative stereo) [Example 20, (±)-(4R*,5R*)-5-[(1S*)-hydroxy(5-phenyl(2-thienyl))methyl]-1-methyl-4-[4-hydroxyphenyl]pyrrolidin-2-one], the IC50 on 17-Beta HSD II Enzyme is less than 500 nM.
For the compound `CN1C(=O)C[C@H](c2ccccc2)[C@@H]1[C@H](O)c1ccc(S(=O)(=O)c2ccccc2)s1` [Example 149], at 17-Beta HSD II Enzyme, the IC50 was less than 500 nM.
As to `CN1C(=O)C[C@H](c2ccccc2)[C@@H]1[C@H](O)c1ccc(-c2ccccn2)s1` [Example 147], at 17-Beta HSD II Enzyme, the IC50 is less than 500 nM.
On the same count and under the same terms, the same measure for `CN1C(=O)C[C@H](c2ccccc2)[C@@H]1[C@H](O)c1ccc(-c2cccnc2)s1` [Example 148]: less than 500 nM.
`CN1C(=O)C[C@H](c2ccc(-c3ccc(F)cc3)cc2)[C@@H]1[C@H](O)c1ccc(-c2ccccc2)s1` (relative stereo) [Example 22, (±)-(4R*,5R*)-5-[(1S*)hydroxy(5-phenyl(2-thienyl))-methyl]-4-[4-(4-fluorophenyl)phenyl]-1-methylpyrrolidin-2-one]: the IC50 on 17-Beta HSD II Enzyme (setting [1]) was 2000 to 10000 nM.

The values above are taken from US6784167B2, “17-beta-hydroxysteroid dehydrogenase-II inhibitors” (Bayer Pharmaceuticals Corporation, priority 2000, dated 2004).
